Test system: EGFR driver alteration-positive NSCLC patients
Test: Progression free survival from start of 1st line Osimertinib in a real-world clinico-genomic NSCLC cohort stratified by tumor heterogeneity score
Type: in vivo, human
Excerpt: Starting with a patient cohort of 15,035 patients, the data was filtered (for biopsy type and bait set). The data was then filtered to exclude data for patients for whom a computational tumor purity was less than or equal to 20% or for whom a computational tumor purity value was missing. The remaining patient data was divided according to whether the samples were early-stage specimens, late-stage specimens, or of ambiguous origin. For the late-stage specimens, data for patients who were first diagnosed prior to Jan. […] Finally, data was selected for N=135 1st line Osimertinib-treated, EGFR driver alteration-positive NSCLC patients for whom tumor samples were sequenced at most a year prior to start of therapy.
The group of 135 patients were then divided into three tertiles with 45 patients each. […] For patients without a subsequent line of therapy, the event date was the earliest progression event that occurred more than 14 days after the index date, or the date of death. • Censor date: patients with a subsequent line of therapy were censored at their last clinic note date if it occurred between the index date and the start date of the subsequent line of therapy plus 14 days. […]

`C=CC(=O)Nc1cc(Nc2nccc(-c3cn(C)c4ccccc34)n2)c(OC)cc1N(C)CCN(C)C` [Osimertinib] was tested, and the mPFS (Score category High, EGFR CCF category Low, N=12) was 6.54 and the mPFS (Score category Low, EGFR CCF category High, N=39) was 16.01.

— US20260058014A1, “CHARACTERIZATION OF TUMOR HET[…] A […]” (Foundation Medicine, Inc., priority 2022, published 2026)
